Test results published in article PMC8284931 (Journal of biomolecular screening, 2012).
Structures can show the parent of a compound that is named as a salt. Where two headings read alike, the source gives them in different places.

Key:
P-glycoprotein = details: result in words; cited from earlier work
[1] = reported, no reference given, cited from earlier work
[2] = biological target: T1, mammalian GUS purified from Bovine taurus liver (Bos taurus, UniProt A3KMY8); assay: B. taurus GUS enzyme assay; type: biochemical; details: for activity against purified mammalian GUS: result in words
T1 sequence (A3KMY8 1-652): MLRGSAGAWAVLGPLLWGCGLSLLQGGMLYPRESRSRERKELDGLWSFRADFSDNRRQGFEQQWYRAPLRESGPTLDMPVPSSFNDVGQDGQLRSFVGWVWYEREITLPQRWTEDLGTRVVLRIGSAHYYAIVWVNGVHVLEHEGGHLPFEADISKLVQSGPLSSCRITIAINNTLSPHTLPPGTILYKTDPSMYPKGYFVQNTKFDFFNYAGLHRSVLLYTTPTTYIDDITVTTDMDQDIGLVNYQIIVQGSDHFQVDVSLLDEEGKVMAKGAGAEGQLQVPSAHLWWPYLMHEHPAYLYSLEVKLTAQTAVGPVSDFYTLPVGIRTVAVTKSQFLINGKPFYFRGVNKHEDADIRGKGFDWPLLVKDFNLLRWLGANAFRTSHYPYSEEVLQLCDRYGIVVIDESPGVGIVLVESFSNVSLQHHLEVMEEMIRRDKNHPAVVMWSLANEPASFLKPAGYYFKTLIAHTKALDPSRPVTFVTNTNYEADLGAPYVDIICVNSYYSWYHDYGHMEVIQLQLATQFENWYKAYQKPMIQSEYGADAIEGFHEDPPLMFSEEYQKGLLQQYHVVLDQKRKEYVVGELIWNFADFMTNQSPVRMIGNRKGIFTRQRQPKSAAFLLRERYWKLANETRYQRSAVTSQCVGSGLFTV

E. coli cells = assay: Toxicity assay; details: MTS, 50 μg/ml, positive control
[3] = biological target: purified E. coli GUS enzyme (Escherichia coli, UniProt P05804); assay: E. coli GUS enzyme assay; type: biochemical
purified E. coli GUS enzyme, sequence (P05804 whole entry): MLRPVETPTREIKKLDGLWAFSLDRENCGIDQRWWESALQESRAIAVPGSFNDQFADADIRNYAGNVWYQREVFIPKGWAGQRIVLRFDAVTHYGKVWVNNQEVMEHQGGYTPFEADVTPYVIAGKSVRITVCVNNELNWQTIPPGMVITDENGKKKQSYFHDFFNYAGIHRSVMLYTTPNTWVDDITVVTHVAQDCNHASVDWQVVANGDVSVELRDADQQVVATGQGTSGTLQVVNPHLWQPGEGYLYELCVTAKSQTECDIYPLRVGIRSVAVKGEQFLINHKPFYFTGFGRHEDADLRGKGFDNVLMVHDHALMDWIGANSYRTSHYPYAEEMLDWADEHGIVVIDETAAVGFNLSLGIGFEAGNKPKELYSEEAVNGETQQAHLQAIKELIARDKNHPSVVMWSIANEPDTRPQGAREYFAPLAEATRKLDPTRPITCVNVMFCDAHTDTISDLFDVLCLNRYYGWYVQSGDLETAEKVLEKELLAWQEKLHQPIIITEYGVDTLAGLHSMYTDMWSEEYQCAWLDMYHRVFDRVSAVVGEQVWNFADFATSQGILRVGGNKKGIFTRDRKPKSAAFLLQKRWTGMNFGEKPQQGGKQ

[4] = biological target: endogenous GUS in living intact E. coli (DH5α) (Escherichia coli, UniProt P05804); assay: E. coli cell-based GUS activity assay; details: IC50 shift; for fold less potent in cell-based assay compared to E. coli GUS enzyme assay: less potent in cells
endogenous GUS in living intact E. coli (DH5α), sequence (P05804 whole entry): as above

in vitro = details: E. coli
[5] = test system: MAO (MAO-A, MAO-B or total activity); details: read-out: IC50 for MAO; depending on subclass of MAO-A or MAO-B, or total activity; reported, no reference given; cited from earlier work

Compound: Clc1ccc2c(c1)C(N1CCNCC1)=Nc1ccccc1O2 [Amoxapine, amoxapine]
- inhibition of P-glycoprotein (P-glycoprotein): potent non-competitive inhibitors
- normal blood levels ([1]; converted from μg/ml): 54 to 669 nM
- normal blood levels [1]: 0.017 to 0.21 µg/mL

Compound: Cc1cc(C(=O)NNCc2ccccc2)no1 [Isocarboxazid, isocarboxazid]
- IC50 [2]: > 100000 nM
- activity against purified mammalian GUS [2]: no significant activity

Compound: NC[C@H]1O[C@H](O[C@H]2[C@H](O)[C@@H](O[C@H]3O[C@H](CO)[C@@H](O)[C@H](N)[C@H]3O)[C@H](N)C[C@@H]2N)[C@H](O)[C@@H](O)[C@@H]1O [Kanamycin, kanamycin]
- reduction of activity in viability assay (E. coli cells): over 90%

Compound: CN1CCN(C2=Nc3ccccc3Oc3ccc(Cl)cc32)CC1 [Loxapine, loxapine]
- loss in potency versus amoxapine ([3]; E. coli GUS enzyme assay, methyl group on the piperazine ring): > 250 fold
- inhibition of P-glycoprotein (P-glycoprotein): potent non-competitive inhibitors

Compound: OC(c1cc(C(F)(F)F)nc2c(C(F)(F)F)cccc12)C1CCCCN1 (stereo not drawn) [Mefloquine, mefloquine hydrochloride]
- fold less potent in cell-based assay compared to E. coli GUS enzyme assay [4]: over 4.9 fold
- fold less potent in cell-based assay compared to E. coli GUS enzyme assay ([4]; listed as mefloquine): 5 fold
- viability at 2 h, 10 µM (in vitro): 100%

Compound: O=C(CCNNC(=O)c1ccncc1)NCc1ccccc1 [Nialamide, nialamide]
- activity against purified mammalian GUS [2]: no significant activity
- fold more potent in cell-based assay compared to E. coli GUS enzyme assay ([4]; more potent in cells): 4 fold

Compound: NNCCc1ccccc1 [Phenelzine, phenelzine]
- inhibition in Prestwick collection screen ([3]; single point, 10 μM compound, high throughput GUS enzyme assay, 10 µM): > 50%
- IC50 [5]: 70 to 900 nM
